Data from patent publication US9642819B2, “Low dosage serotonin 5-HT2A receptor agonist to suppress inflammation” (BOARD OF SUPERVISORS OF LOUISIANA STATE UNIVERSITY AND …, priority 2008, dated 2017).

What was measured:
[1] = test system: ICAM-1 gene expression; experiment: TNF-α induced ICAM-1 gene expression in rat C6 glioma cells; type: cell-based; details: 1 nM and 50 nM prior to TNF-α
Procedure: Experiments were conducted to analyze for the effect of 5-HT2A receptor activation on proinflammatory marker expression in other cell types. Human neuroblastoma cells (SHSY5Y) and rat glioma cells (C6) can be obtained from the American Type Culture Collection (Manassas, Va.), but were provided Purdue University. The cells were grown in DMEM+10% FBS. DMEM was made and provided by the Cell and Molecular Core of the Mentoring in Cardiovascular Biology COBRE center at LSUHSC-NO. FBS was purchased from Invitrogen (Carlsbad, Calif.). Primary rat aortic endothelial cells were prepared fresh and provided by the Cell and Molecular Core of the Mentoring in Cardiovascular Biology COBRE center at LSUHSC-NO. Cells were tested at passages 3-4. Cells were grown in endothelial cell growth medium (Cell Applications, Inc.). Primary rat bronchoaveolar macrophage cells were obtained by lung lavage from rats and used at day 3 or 4 post plating in DMEM+10% FBS.
All treatments with 5-HT2A receptor agonists occurred 1 hour prior to the addition of TNF-alpha (10 ng/ml) or LPS (100 ng or 1 mg) depending on the experiment. All RNA isolations, cDNA synthesis, QPCR gene expression assays examining ICAM1, VCAM1, and IL6, and data analysis were performed as described above in Example 1, except the primers were different for the human cell experiment. […]

[2] = test system: VCAM-1 gene expression; experiment: TNF-α induced VCAM-1 gene expression in primary rat aortic smooth muscle cells; type: cell-based; details: RASM passage 4, media with FBS, 24 h pretreatment, TNF-α 10 ng/ml, read-out: IC50 for proinflammatory gene expression inhibition for VCAM-1
Procedure: RASM cells and treatment. Rat aortic smooth muscle (RASM) cells were isolated from adult 180 g male Sprague-Dawley rats and provided by the Cell and Molecular Core Facility in the Department of Pharmacology at LSUHSC-NO. Isolated RASM cells were grown in M-199 media containing 10% fetal bovine serum (Gibco), 100 units/mL penicillin, and 100 µg/mL streptomycin, and incubated at 37° C. in 5% CO2. Cells for all assays were used between passages 3 and 5. Prior to treatments, cells were grown in M-199 media with 10% fetal bovine serum (FBS) until 30-50% confluent. […]
RNA isolation and Quantitative Realtime-PCR. […]
The sequences of primers used are: 5-HT2AR (5-hydroxytryptamine 2A receptor): forward primer 5′-[…]-3′ (SEQ ID NO: 1), reverse primer, 5′[…]-3′ (SEQ ID NO: 2); ICAM-1 (intracellular adhesion molecule 1): forward primer, 5′-[…]-3′ (SEQ ID NO: 3, reverse primer, 5′-[…]-3′ (SEQ ID NO: 4); VCAM-1 (vascular adhesion molecule 1): forward primer, 5′-[…]-3′ (SEQ ID NO: 5), reverse primer, 5′-[…]-3′ (SEQ ID NO: 6); IL-6 (interleukin-6): forward primer, 5′-[…] […]-3′ (SEQ ID NO: 7), reverse primer, 5′-[…]-3′ (SEQ ID NO: 8); and cyclophillin B (control amplicon): forward primer, 5′-[…]-3′ (SEQ ID NO: 9), reverse primer, 5′-[…]-3′ (SEQ ID NO: 10). […] Quantitative determination of gene expression levels using a 2-step cycling protocol was performed on a MyIQ-5 Cycler (Bio-Rad, Hercules Calif.). […]

[3] = molecular target: 5-HT2A receptor; details: read-out: Affinity=Ki for the receptor; cited from earlier work
[4] = test system: Nitric Oxide Synthetase (NOS) activity; experiment: NOS activity: nitrite levels in culture medium of RASM cells after TNF-α; type: cell-based, rat; details: 1 nM pretreatment for 24 hours, TNF-α 10 ng/ml 24 hours
Procedure: Nitric Oxide Synthetase (NOS) Activity. NOS activity was determined by detection of nitrite levels in the cell culture medium following (R)-DOI/TNF-α treatments utilizing the Nitrate Detection kit from Assay Designs (Ann Arbor, Mich.) following the manufacturers protocols. Absorbances were detected at 539 nm on a […] SpectraMax M2 plate reader.
A key participant in inflammatory processes is NOS activity (Guzik et al., 2003). NOS activity can regulate NF-kB activation (Ckless et al., 2007), and cytokine pathway-activated NF-kB can transcriptionally regulate iNOS gene expression (Guo et al., 2007). To examine the effects of 5-HT2A receptor activation on this component of inflammatory mechanisms, primary RASM cells were used to examine the ability of 1 nM (R)-DOI to block TNF-α mediated increases in nitrite levels.
As an indicator of NOS activity, nitrite levels were measured in the cell culture media after treatments and are shown in FIG. 6 as % control. […] Pretreatment with 1 nM (R)-DOI for 24 hours blocked TNF-α mediated increases in nitrite accumulation (DOI+T).

## COc1cc(C[C@@H](C)N)c(OC)cc1I [(R)-DOI, (R)-1-(2,5-dimethoxy-4-iodophenyl)-2-aminopropane]
[1]
  effect on ICAM-1 gene expression in rat glioma cells: blocked
[2]
  IC50: 0.012 nM
[3]
  Ki: 0.5 nM
[4]
  effect on TNF-α mediated increases in nitrite accumulation: blocked
